# Literature values in patent publication US8957218B2, “2-oxo-1-imidazolidinyl imidazothiadiazole derivatives” (UCB Pharma S.A., priority 2011, dated 2015).
# System: epilepsy (seizure control)
# Settings: Gower A. J. et al., Eur. J. Pharmacol. (1992), 222, 193-203
smiles,measurement,value
CC[C@H](C(N)=O)N1CCCC1=O [(R)-α-ethyl-2-oxo-1-pyrrolidine acetamide],activity in the treatment of epilepsy (seizure control),completely lacks activity
